In patent US9480259B2, “Pyrazolopyrans having herbicidal and pharmaceutical properties” (BASF SE, priority 2012, dated 2016):

Molecular target: Arabidopsis thaliana SHMT
Experiment: SHMT activity assay (ED50 SHMT), coupled with N5,N10-CH2-THF dehydrogenase, NADH at 340 nm
Type: biochemical
How it was run: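 His-tagged SHMT purified on Ni-NTA. NADH formation followed at 340 nm for 30 min; ED50 from inhibition of initial velocity.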

[1] = Table 2, values given as upper bounds
[2] = Table 2, Arabidopsis thaliana SHMT enzyme assay, values given as upper bounds
[3] = Arabidopsis thaliana SHMT enzyme assay, values given as upper bounds
[4] = inhibition of initial velocity of Arabidopsis thaliana SHMT

SMILES	EC50 [1] [nM]	also measured
Cc1n[nH]c2c1C(c1cc(C#N)cc(-c3cc(F)cc(C(=O)O)c3)c1)(C1CCC1)C(C#N)=C(N)O2 (stereo not drawn) [Compound 2.545]	< 10	
Cc1n[nH]c2c1C(c1cc(Cl)cc(-c3ccsc3)c1)(C1CC1)C(C#N)=C(N)O2 (stereo not drawn) [Compound 2.275]		EC50 [2]: < 10 nM
Cc1n[nH]c2c1C(c1cc(C#N)cc(N(C)CCCC(=O)O)c1)(C1CCC1)C(C#N)=C(N)O2 (stereo not drawn) [Compound 2.695]		EC50 [3]: < 100 nM
Cc1n[nH]c2c1C(c1cc(Cl)cc(OC(F)(F)F)c1)(C1CCC1)C(C#N)=C(N)O2 (stereo not drawn) [Compound 2.266]		EC50 [2]: < 10 nM
Cc1n[nH]c2c1C(c1ccc(CC#N)c(-c3nnn[nH]3)c1)(C1CCC1)C(C#N)=C(N)O2 (stereo not drawn) [Compound 2.708]		EC50 [3]: < 10000 nM
Cc1n[nH]c2c1C(c1cc(C#N)cc(C(=O)OCc3ccccc3)c1)(C1CCC1)C(C#N)=C(N)O2 (stereo not drawn) [Compound 2.370]		EC50 [2]: < 10 nM
CC(C)C1(c2cc(Cl)cc(C(F)(F)F)c2)C(C#N)=C(N)Oc2[nH]ncc21 (stereo not drawn) [Compound 2.315]		EC50 [2]: < 10 nM
Cc1n[nH]c2c1C(c1cc(C(F)(F)F)cc(C(F)(F)F)c1)(C1CCC1)C(C#N)=C(N)O2 (stereo not drawn) [Compound 2.191.]	< 100	
Cc1n[nH]c2c1C(c1cc3cc(Cl)ccc3s1)(C1CCC1)C(C#N)=C(N)O2 (stereo not drawn) [Compound 4.9]		EC50 [4]: < 10 nM
COc1ccc(C2(C(C)C)C(C#N)=C(N)Oc3[nH]nc(C)c32)cc1Br (stereo not drawn) [Compound 2.222]		EC50 [2]: < 10 nM
Cc1n[nH]c2c1C(c1cc(Cl)cc(C(N)=O)c1)(C1CCC1)C(C#N)=C(N)O2 (stereo not drawn) [Compound 2.284]		EC50 [2]: < 10 nM
COC(=O)c1cc(OC(F)(F)F)cc(-c2cc(C#N)cc(C3(C4CCC4)C(C#N)=C(N)Oc4[nH]nc(C)c43)c2)c1 (stereo not drawn) [Compound 2.551]	< 100	
Cc1n[nH]c2c1C(c1nc3c(Br)cccc3o1)(C1CCC1)C(C#N)=C(N)O2 (racemic) [Compound 4.58]		EC50 [4]: < 100 nM
COc1c(Br)cc(C2(C3CCC3)C(C#N)=C(N)Oc3[nH]nc(C)c32)cc1Br (stereo not drawn) [Compound 2.241]		EC50 [2]: < 10 nM
Cc1n[nH]c2c1C(c1ccc(-c3cccc(C(F)(F)F)c3)s1)(C1CCC1)C(C#N)=C(N)O2 (stereo not drawn) [Compound 4.43]		EC50 [4]: < 10 nM
Cc1n[nH]c2c1C(c1cc(Cl)cc(Cl)c1)(C1CCCC1)C(C#N)=C(N)O2 (stereo not drawn) [Compound 2.199.]	< 1000	
Cc1n[nH]c2c1C(c1ccc(C(F)(F)F)c(C(F)(F)F)c1)(C1CCC1)C(C#N)=C(N)O2 (stereo not drawn) [Compound 2.272]		EC50 [2]: < 10 nM
COc1ccc2cc(C3(C4(F)CC4)C(C#N)=C(N)Oc4[nH]ncc43)ccc2c1 (racemic) [Compound 4.75]		EC50 [4]: < 1000 nM
Cc1n[nH]c2c1C(c1cc(C(F)(F)F)c3nc(C(=O)O)ccc3c1)(C1CCC1)C(C#N)=C(N)O2 (stereo not drawn) [Compound 4.39]		EC50 [4]: < 10 nM
Cc1n[nH]c2c1C(c1cc(C#N)cc(-c3ccc(C(=O)O)s3)c1)(C1(F)COC1)C(C#N)=C(N)O2 (stereo not drawn) [Compound 2.680]		EC50 [3]: < 1000 nM
Cc1n[nH]c2c1C(c1cc(C#N)cc(N(C)C(=O)CCC#N)c1)(C1CCC1)C(C#N)=C(N)O2 (stereo not drawn) [Compound 2.661]		EC50 [3]: < 10 nM

SMILES	EC50 [1] [nM]	also measured
Cc1n[nH]c2c1C(c1nc3c(Cl)cccc3s1)(C1CCC1)C(C#N)=C(N)O2 (stereo not drawn) [Compound 4.45]		EC50 [4]: < 10 nM
Cc1n[nH]c2c1C(c1cc(Cl)cc(CC(=O)O)c1)(C1CCC1)C(C#N)=C(N)O2 (stereo not drawn) [Compound 2.499]	< 10	
COc1c(F)cc(-c2cc(C#N)cc(C3(C4CCC4)C(C#N)=C(N)Oc4[nH]nc(C)c43)c2)cc1F (stereo not drawn) [Compound 2.463]	< 10	
Cc1n[nH]c2c1C(c1cc(CN)cc(N(C)C(=O)CCCC(=O)O)c1)(C(C)C)C(C#N)=C(N)O2 (stereo not drawn) [Compound 2.689]		EC50 [3]: < 1000 nM
Cc1ccc(-c2ccc(C3(C4CCC4)C(C#N)=C(N)Oc4[nH]nc(C)c43)s2)cc1 (stereo not drawn) [Compound 4.13]		EC50 [4]: < 10 nM
Cc1n[nH]c2c1C(c1cc(-c3ccccc3)cs1)(C1CCC1)C(C#N)=C(N)O2 (stereo not drawn) [Compound 4.24]		EC50 [4]: < 10 nM
Cc1n[nH]c2c1C(c1cc(Cl)cc(Cl)c1)(C(C)(F)F)C(C#N)=C(N)O2 (stereo not drawn) [Compound 2.653]		EC50 [3]: < 100 nM
CC(C)C1(c2cc(Cl)cc(Br)c2)C(C#N)=C(N)Oc2[nH]ncc21 (stereo not drawn) [Compound 2.317]		EC50 [2]: < 10 nM
Cc1n[nH]c2c1C(c1cc(C#N)cc(CCC#N)c1)(C(C)C)C(C#N)=C(N)O2 (stereo not drawn) [Compound 2.671]		EC50 [3]: < 10 nM
Cc1n[nH]c2c1C(c1ccc(CCc3nnn[nH]3)c(-c3nnn[nH]3)c1)(C1CCC1)C(C#N)=C(N)O2 (stereo not drawn) [Compound 2.654]		EC50 [3]: < 100 nM
Cc1n[nH]c2c1C(c1cc(Cl)cc(Oc3ccc(Cl)cc3)c1)(C1CCC1)C(C#N)=C(N)O2 (stereo not drawn) [Compound 2.341]		EC50 [2]: < 10 nM
COC(=O)c1cc(-c2cc(C#N)cc(C3(C4CCC4)C(C#N)=C(N)Oc4[nH]nc(C)c43)c2)ccc1C(=O)O (stereo not drawn) [Compound 2.572]	< 100	
N#CC1=C(N)Oc2[nH]ncc2C1(c1cc(N2CCOCC2)cc(C(F)(F)F)c1)C1CCC1 (stereo not drawn) [Compound 2.274]		EC50 [2]: < 10 nM
Cc1n[nH]c2c1C(c1cc(CCC#N)cc(-c3nnn[nH]3)c1)(C(C)C)C(C#N)=C(N)O2 (stereo not drawn) [Compound 2.710]		EC50 [3]: < 100 nM
Cc1n[nH]c2c1C(c1cc(C#N)cc(-c3ccc(C(=O)O)c(F)c3)c1)(C1CCC1)C(C#N)=C(N)O2 (stereo not drawn) [Compound 2.560]	< 10	
COc1c(F)cc(C2(C3CCC3)C(C#N)=C(N)Oc3[nH]nc(C)c32)cc1F (stereo not drawn) [Compound 2.447]	< 10	
CCOc1n[nH]c2c1C(c1cc(C#N)cc(C#N)c1)(C1CCC1)C(C#N)=C(N)O2 (stereo not drawn) [Compound 2.397]		EC50 [2]: < 100 nM
COc1n[nH]c2c1C(c1cc(Br)cc(C#N)c1)(C1CCC1)C(C#N)=C(N)O2 (stereo not drawn) [Compound 2.388]		EC50 [2]: < 10 nM
Cc1n[nH]c2c1C(c1cc(Cl)cc(Cl)c1)(C1(F)CC1)C(C#N)=C(N)O2 (stereo not drawn) [Compound 2.214.]	< 10	
Cc1n[nH]c2c1C(c1cc(C#N)cc(N(C)C(=O)CCCC(=O)O)c1)(C(C)C)C(C#N)=C(N)O2 (stereo not drawn) [Compound 2.694]		EC50 [3]: < 10 nM
Cc1n[nH]c2c1C(c1cc(Cl)cc(-c3cccc(Cl)c3)c1)(C1CCC1)C(C#N)=C(N)O2 (stereo not drawn) [Compound 2.227]		EC50 [2]: < 10 nM

More lines, main results first:

EC50 [1] [nM]	SMILES	also measured
< 100	Cc1n[nH]c2c1C(c1cc(Cl)cc(Oc3ccc(F)cc3)c1)(C1CC1)C(C#N)=C(N)O2 (stereo not drawn) [Compound 2.189.]	
< 1000	Cc1n[nH]c2c1C(c1ccc(Cl)cc1)(C(C)C)C(C#N)=C(N)O2 (stereo not drawn) [Compound 2.143.]	
< 10000	CCCCC1(c2cc(Cl)cc(Cl)c2)C(C#N)=C(N)Oc2[nH]nc(C)c21 (racemic) [Compound 2.92.]	
< 10000	CCC1(c2ccc(OC(C)(C)C)cc2)C(C#N)=C(N)Oc2[nH]nc(C)c21 (racemic) [Compound 2.27.]	
< 10	Cc1n[nH]c2c1C(c1cc(C#N)cc(-c3ccc(F)c(C(=O)O)c3)c1)(C1CCC1)C(C#N)=C(N)O2 (stereo not drawn) [Compound 2.558]	
< 100	CCC1(c2cc(C(F)(F)F)cc(C(F)(F)F)c2)C(C#N)=C(N)Oc2[nH]nc(C(F)F)c21 (stereo not drawn) [Compound 2.166.]	
< 1000	CCCC1(c2ccc(Cl)c(Cl)c2)C(C#N)=C(N)Oc2[nH]nc(C)c21 (stereo not drawn) [Compound 2.90.]	
< 1000	CCc1n[nH]c2c1C(CC)(c1ccc(Oc3ccccc3)cc1)C(C#N)=C(N)O2 (stereo not drawn) [Compound 2.130.]	
< 1000	CCC1(c2cc(Cl)cc(Cl)c2)C(C#N)=C(N)Oc2[nH]nc(C3CC3)c21 (stereo not drawn) [Compound 2.133.]	
< 1000	CCC1(c2cccc(-c3ccccc3)c2)C(C#N)=C(N)Oc2[nH]nc(C)c21 (stereo not drawn) [Compound 2.35.]	
< 10	CCC1(c2cc(Br)cc(C#N)c2)C(C#N)=C(N)Oc2[nH]nc(C(F)F)c21 (stereo not drawn) [Compound 2.607]	
< 100	Cc1n[nH]c2c1C(c1cccc(Cl)c1)(C1CCCC1)C(C#N)=C(N)O2 (stereo not drawn) [Compound 2.211.]	
< 100	Cc1n[nH]c2c1C(c1cccc(C#N)c1)(C1CCC1)C(C#N)=C(N)O2 (stereo not drawn) [Compound 2.192.]	
< 1000	CCC1(c2ccc(-c3ccccc3F)cc2)C(C#N)=C(N)Oc2[nH]nc(C)c21 (stereo not drawn) [Compound 2.44.]	
< 100	CCOC(=O)COc1cc(Cl)cc(C2(C3CCC3)C(C#N)=C(N)Oc3[nH]nc(C)c32)c1 (stereo not drawn) [Compound 2.480]	
< 10	COc1ccc(C2(C(C)(C)F)C(C#N)=C(N)Oc3[nH]nc(C)c32)cc1Cl (stereo not drawn) [Compound 2.620]	
< 1000	CCC1(c2ccc(OC(=O)C(C)(C)C)c(C)c2)C(C#N)=C(N)Oc2[nH]nc(C)c21 (stereo not drawn) [Compound 2.52.]	
< 100	Cc1n[nH]c2c1C(c1ccc(Cl)c(Cl)c1)(C1CCCC1)C(C#N)=C(N)O2 (stereo not drawn) [Compound 2.210.]	
< 10000	N#CC1=C(N)Oc2[nH]nc(C3CC3)c2C1(c1ccc(Cl)cc1)C1CCC1 (stereo not drawn) [Compound 2.140.]	
< 10000	CCC1(c2cccc(C(F)(F)F)c2)C(C#N)=C(N)Oc2[nH]nc(CCC(F)F)c21 (stereo not drawn) [Compound 2.106.]	
< 100	Cc1n[nH]c2c1C(c1cc(C#N)cc(N(C)C(=O)c3ccc(C(=O)O)cc3)c1)(C1CCC1)C(C#N)=C(N)O2 (stereo not drawn) [Compound 2.634]	
< 10	Cc1n[nH]c2c1C(c1cc(Cl)cc(-c3cccc(-c4nnn[nH]4)c3)c1)(C1CCC1)C(C#N)=C(N)O2 (stereo not drawn) [Compound 2.515]	
< 1000	Cc1n[nH]c2c1C(c1ccc(CC(=O)O)c(C#N)c1)(C1CCC1)C(C#N)=C(N)O2 (racemic) [Compound 2.541]	
< 10	Cc1n[nH]c2c1C(c1cc(Cl)cc(CCC#N)c1)(C1CCC1)C(C#N)=C(N)O2 (stereo not drawn) [Compound 2.555]	
